From PubChem BioAssay (NCI)
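Assay format: 96-well plates, 48-hour exposure. GI50 = concentration required for 50% inhibition of growth. At the TGI there is no net growth.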

Assays:
Test in all cases: inhibition of tumour cell growth, NCI panel, 48 h
[1] = test system: MDA-MB-231 breast
[2] = test system: T-47D breast
[3] = test system: DU-145 prostate
[4] = test system: MDA-N
[5] = test system: COLO 205 colon
[6] = test system: HS 578T breast
[7] = test system: PC-3 prostate
[8] = test system: SR leukemia
[9] = test system: BT-549 breast
[10] = test system: HOP-18 NSCLC
[11] = test system: SNB-78 CNS
[12] = test system: M19-MEL melanoma

Row | SMILES | TGI [1] [µM] | TGI [2] [µM] | TGI [3] [µM] | TGI [4] [µM] | TGI [5] [µM] | TGI [6] [µM] | TGI [7] [µM] | TGI [8] [µM] | TGI [9] [µM] | TGI [10] [µM] | TGI [11] [µM] | TGI [12] [µM] | GI50 [1] [µM] | GI50 [2] [µM] | GI50 [3] [µM] | GI50 [5] [µM] | GI50 [6] [µM] | GI50 [7] [µM] | GI50 [8] [µM] | GI50 [9] [µM]
1 | CON(C)c1nc(N)c(C#N)c(C#N)c1C#N | > 10 | > 10 | > 10 | > 10 | > 10 | > 10 | > 10 | > 10 | – | – | – | – | – | – | – | – | – | – | – | –
2 | C=C1CC[C@@]2(C)[C@@H]([C@@H]1C)[C@H]1CC[C@@H]3[C@@]4(C)CC[C@H](O)C(C)(C)[C@@H]4CC[C@@]3(C)[C@]1(C)C[C@@H]2O | 4.75 | 8.76 | 17.5 | > 51.5 | > 100 | 7.29 | 10.3 | > 100 | 34.6 | – | – | – | – | – | – | – | – | – | – | –
3 | C=C1C(=O)OC2C1CCC(=C)C1CC(O)C(=C)C12 (stereo unspecified) | 31.6 | 42.8 | 29 | 26.7 | 6.89 | > 100 | 28 | 10.8 | 30.4 | – | – | – | – | – | – | – | – | – | – | –
4 | Cc1cc(OCc2nc(N)nc(N)c2-c2ccc(Cl)c(Cl)c2)ccc1[N+](=O)[O-] | 7.24 | > 51.5 | > 65 | 22.9 | 18.9 | > 88.2 | 11.7 | 0.106 | 12.2 | – | – | – | – | – | – | – | – | – | – | –
5 | O=C(O)c1cc2ccccc2c(Cc2c(O)c(C(=O)O)cc3ccccc23)c1O | > 100 | > 100 | > 100 | > 100 | – | > 100 | > 100 | > 100 | > 100 | – | – | – | – | – | – | – | – | – | – | –
6 | COc1ccc(CN(CCN(C)C)c2ccccn2)cc1 (tested in a mixture with another compound) | – | – | – | – | – | – | – | – | – | > 100 | > 100 | – | – | – | – | – | – | – | – | –
7 | Cc1cc(N(CCC#N)S(=O)(=O)c2ccccc2)ccc1C=Nc1cccc(C(=O)O)c1 | – | – | – | – | > 100 | – | – | – | – | > 100 | > 100 | > 100 | – | – | – | – | – | – | – | –
8 | COc1cccc(N/C(C)=C2/CCOC2=O)c1 | > 10 | > 10 | > 10 | > 10 | > 10 | > 10 | > 10 | > 10 | – | – | – | – | – | – | – | – | – | – | – | –
9 | Oc1cc(O)c2c(c1)O[C@H](c1ccc(O)c(O)c1)[C@@H](O)C2 | > 100 | > 100 | > 100 | > 100 | > 100 | > 100 | > 100 | > 100 | – | – | – | – | – | – | – | – | – | – | – | –
10 | CC1(CO)C(O)CCC2(C)C1CCC1CC3CC12CCC3(O)CO (stereo unspecified) | – | – | – | – | > 100 | – | – | – | – | > 100 | > 100 | > 100 | – | – | – | – | – | – | – | –
11 | O=C(Nc1ccccc1)c1cc2ccccc2c(N=Nc2cccc([N+](=O)[O-])c2)c1O | > 100 | > 100 | > 100 | > 100 | > 100 | 99.1 | > 100 | > 100 | > 100 | – | – | – | – | – | – | – | – | – | – | –
12 | C[C@@H]1C[C@H]2OC(=O)[C@@]3(C)CCC[C@@](C)([C@@H]23)[C@@]1(O)CCc1ccoc1 | > 100 | > 100 | > 100 | > 100 | > 100 | > 100 | > 100 | > 88.9 | > 100 | – | – | – | – | – | – | – | – | – | – | –
13 | C1=N[C@]23C(=N[C@H](N=C2NCc2ccco2)[C@]24N=CNC2=N[C@H]3N=C4NCc2ccco2)N1 | > 100 | > 100 | > 100 | – | > 100 | > 100 | > 100 | > 100 | – | – | – | – | > 100 | > 100 | > 100 | > 100 | 39.1 | > 100 | > 100 | –
14 | Cc1c(C)c2c(c(C)c1OC(=O)CCC(=O)[O-])CCC(C)(CCCCCCCCCCC[P+](c1ccccc1)(c1ccccc1)c1ccccc1)O2 (stereo unspecified) | – | 0.966 | 0.899 | – | – | 1.31 | 0.706 | 9.05 | 0.678 | – | – | – | – | 0.124 | 0.218 | – | 0.18 | 0.158 | 0.261 | 0.14
15 | O=C(NN1C(=O)C(Cl)C1c1cccc(O)c1)c1ccccc1O (stereo unspecified) | – | – | – | – | – | – | – | – | – | > 100 | > 100 | > 100 | – | – | – | – | – | – | – | –
